Counter-ions that a name gives are not always drawn.
Experiments:
Type in all cases: subcellular
[1] = target: T1, NAD(+) hydrolase SARM1 (Homo sapiens) (UniProt Q6SZW1); assay: Inhibition of recombinant human SARM1 TIR domain (561 to 724 residues) expressed in Escherichia coli C43 (DE3) cells lysates using ENAD as substrate at 25 uM preincubated for 20 mins followed by ENAD addition and measured after 1 hr relative to control
T1 sequence (whole entry): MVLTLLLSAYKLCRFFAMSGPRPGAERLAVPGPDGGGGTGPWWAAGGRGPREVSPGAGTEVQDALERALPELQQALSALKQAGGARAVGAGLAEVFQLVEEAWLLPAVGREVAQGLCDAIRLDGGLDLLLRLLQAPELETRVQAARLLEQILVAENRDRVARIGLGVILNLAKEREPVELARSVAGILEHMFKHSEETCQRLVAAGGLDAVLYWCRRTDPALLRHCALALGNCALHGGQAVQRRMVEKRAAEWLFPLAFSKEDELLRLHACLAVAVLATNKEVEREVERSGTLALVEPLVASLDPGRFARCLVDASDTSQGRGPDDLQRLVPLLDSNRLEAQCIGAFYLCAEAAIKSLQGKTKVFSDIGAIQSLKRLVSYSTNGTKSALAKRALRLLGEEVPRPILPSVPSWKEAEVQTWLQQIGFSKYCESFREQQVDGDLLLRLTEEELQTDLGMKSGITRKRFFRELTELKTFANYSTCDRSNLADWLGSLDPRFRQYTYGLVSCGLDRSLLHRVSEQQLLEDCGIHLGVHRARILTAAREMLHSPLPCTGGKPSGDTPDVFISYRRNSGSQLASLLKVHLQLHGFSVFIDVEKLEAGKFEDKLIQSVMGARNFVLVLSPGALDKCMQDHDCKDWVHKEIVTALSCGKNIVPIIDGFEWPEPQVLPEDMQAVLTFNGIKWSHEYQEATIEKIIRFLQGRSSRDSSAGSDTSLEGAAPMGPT

NAD(+) hydrolase SARM1 [2] = target: T2, NAD(+) hydrolase SARM1 (Homo sapiens, UniProt Q6SZW1); assay: Noncompetitive inhibition of recombinant human SARM1 TIR domain (561 to 724 residues) expressed in Escherichia coli C43 (DE3) cells lysates assessed as EADPR formation using ENAD as substrate preincubated for 20 mins followed by ENAD addition and measured at 15 sec interval for 1 hr
T2 sequence (Q6SZW1 whole entry): T1 sequence (whole entry)

NAD(+) hydrolase SARM1 [3] = target: T2, NAD(+) hydrolase SARM1; assay: Inhibition of recombinant human SARM1 TIR domain (561 to 724 residues) expressed in Escherichia coli C43 (DE3) cells lysates using ENAD as substrate preincubated for 20 mins followed by ENAD addition and measured at 15 sec interval for 15 mins
NAD(+) hydrolase SARM1 [4] = target: T2, NAD(+) hydrolase SARM1; assay: Competitive inhibition of recombinant human SARM1 TIR domain (561 to 724 residues) expressed in Escherichia coli C43 (DE3) cells lysates assessed as EADPR formation using ENAD as substrate preincubated for 20 mins followed by ENAD addition and measured at 15 sec interval for 1 hr

SMILES	inhibition [1] [%]	Ki (NAD(+) hydrolase SARM1 [2]) [µM]	IC50 (NAD(+) hydrolase SARM1 [3]) [µM]	Ki (NAD(+) hydrolase SARM1 [4]) [µM]
C[C@H]1c2cccc(O)c2C(=O)C2=C(O)[C@]3(O)C(=O)C(C(N)=O)=C(O)[C@@H](N(C)C)[C@@H]3[C@@H](O)[C@@H]21	26	–	–	–
NC(=O)N/N=C/c1ccc([N+](=O)[O-])o1 [NITROFURAZONE]	27	120	90	–
Nc1ccc(/N=N/c2ccccc2)c(N)n1 [PHENAZOPYRIDINE HYDROCHLORIDE]	44	–	–	70

— ChEMBL document CHEMBL4725376, “Identification of the first noncompetitive SARM1 inhibitors” (Bioorg Med Chem, 2020)
